Among the test systems are HOP-62 NSCLC; SR leukemia; NCI/ADR-RES ovarian; SK-MEL-5 melanoma; TK-10 renal; A498 renal; IGROV1 ovarian; NCI-H23 lung; OVCAR-5 ovarian; LOX IMVI melanoma.
Holding throughout (assay): NCI tumour cell line growth inhibition, 48 h

Structures are written as SMILES.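 Interpolation was linear, between the two tested concentrations surrounding the appropriate level; five concentrations were tested over 48 hours in 96-well plates. The concentration for 50% growth inhibition is given as GI50. At the TGI there is no net growth.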

Take `COc1ccc2c(O)c(/C=C3\N=Nc4ncccc43)oc2c1C[C@@H]1CCNC[C@H]1F`: the GI50 in the test on HOP-62 NSCLC is 0.336 µM; with NCI/ADR-RES ovarian it was 0.915 µM; with SK-MEL-5 melanoma, 0.869 µM; in the test on TK-10 renal, 2.11 µM; in the test on A498 renal it was 1.39 µM; with IGROV1 ovarian, 1.79 µM. Moreover, the results for the GI50 in the test with NCI-H23 lung, in the test with OVCAR-5 ovarian and in the test on LOX IMVI melanoma were 0.861 µM, 1.02 µM and 0.318 µM, respectively. Moreover, the TGI with HOP-62 NSCLC is 2.94 µM; in the test with SR leukemia, 0.193 µM; in the test with NCI/ADR-RES ovarian, 4.31 µM; with SK-MEL-5 melanoma it was 8.35 µM; with TK-10 renal, 5.91 µM; in the test with A498 renal, 3.66 µM. Also, the TGI turned out to be 8.11 µM in the test on IGROV1 ovarian, 3.51 µM with NCI-H23 lung, 8.29 µM in the test with OVCAR-5 ovarian and 0.972 µM with LOX IMVI melanoma.
Consider `Oc1ccc2ccccc2c1C=NCc1c(O)ccc2ccccc12`, for which the TGI with HOP-62 NSCLC is more than 100 µM; in the test with SR leukemia, more than 100 µM; in the test on NCI/ADR-RES ovarian, more than 100 µM; in the test on SK-MEL-5 melanoma, more than 100 µM; with TK-10 renal it was more than 100 µM; in the test on A498 renal, 74.5 µM. Besides, the TGI in the test on IGROV1 ovarian, with NCI-H23 lung, in the test with OVCAR-5 ovarian and in the test on LOX IMVI melanoma was more than 100 µM in each case.
With `COc1ccc(C2C(C#N)=C(N)Oc3c2sc2c(Br)cccc32)cc1` (centres undefined), the GI50 in the test on HOP-62 NSCLC is 4.48 µM; in the test with SR leukemia, 0.473 µM; in the test on NCI/ADR-RES ovarian, 0.767 µM; in the test with SK-MEL-5 melanoma, 2.4 µM; in the test on TK-10 renal, 8.48 µM; in the test with A498 renal it was 1.37 µM. In addition, the GI50 with IGROV1 ovarian was 2.29 µM; in the test on NCI-H23 lung it was 2.64 µM; in the test with OVCAR-5 ovarian it was 8.95 µM; in the test with LOX IMVI melanoma it was 2.03 µM. For the same compound, the TGI in the test on HOP-62 NSCLC was 17.5 µM; in the test on SR leukemia it was 3.37 µM; in the test with NCI/ADR-RES ovarian, 4.26 µM; with SK-MEL-5 melanoma, 10.7 µM; in the test with TK-10 renal, 22.2 µM; in the test on A498 renal, 13.9 µM. Also, the TGI with IGROV1 ovarian was determined as 20.9 µM; in the test on NCI-H23 lung it was 14.2 µM; with OVCAR-5 ovarian, 26.5 µM; in the test on LOX IMVI melanoma, 12.8 µM.
On to `CCC(C)C1=C(O)[N+]2([O-])Oc3ccc(C4=C(O)C(=O)C(c5ccc(O)cc5)=C(O)C4=O)cc3OC2(C(C)CC)C(=O)N1O` (centres undefined), for which the GI50 was 9.94 µM with HOP-62 NSCLC; 1.25 µM with SR leukemia; 7.86 µM in the test on NCI/ADR-RES ovarian; 6.82 µM in the test with SK-MEL-5 melanoma; 3.41 µM in the test on TK-10 renal; 5.24 µM in the test on A498 renal. Further, the GI50 was 17 µM in the test on IGROV1 ovarian, 13.3 µM in the test on NCI-H23 lung, more than 100 µM in the test on OVCAR-5 ovarian and 7.28 µM with LOX IMVI melanoma. Further, the TGI in the test on HOP-62 NSCLC is more than 100 µM; in the test on SR leukemia it was 7.81 µM; in the test on NCI/ADR-RES ovarian it was more than 100 µM; with SK-MEL-5 melanoma, 27.3 µM; in the test on TK-10 renal it was more than 100 µM; in the test with A498 renal, 41.9 µM. For the same compound, the TGI in the test on IGROV1 ovarian was more than 100 µM; with NCI-H23 lung, more than 100 µM; in the test on OVCAR-5 ovarian, more than 100 µM; with LOX IMVI melanoma it was 33.9 µM.
As for `COc1ccc(S(=O)(=O)Nc2c(/C=C\c3cc(OC)c(OC)c(OC)c3)ccc(OC)c2O)cc1`, the GI50 in the test on HOP-62 NSCLC was 0.0397 µM; in the test on SR leukemia, 0.0319 µM; with NCI/ADR-RES ovarian it was 0.155 µM; with SK-MEL-5 melanoma it was 0.0363 µM; in the test with TK-10 renal, 0.0732 µM; in the test with A498 renal, 0.0188 µM. Moreover, the GI50 is 0.054 µM in the test with IGROV1 ovarian, 0.052 µM with NCI-H23 lung, 1.02 µM in the test with OVCAR-5 ovarian and 0.0455 µM in the test with LOX IMVI melanoma. The TGI in the test on HOP-62 NSCLC is more than 100 µM; in the test with SR leukemia it was 16.2 µM; in the test with NCI/ADR-RES ovarian it was 0.598 µM; with SK-MEL-5 melanoma, 0.201 µM; with TK-10 renal it was 59.1 µM; in the test with A498 renal it was 0.085 µM. The TGI is more than 100 µM in the test with IGROV1 ovarian, more than 100 µM in the test on NCI-H23 lung, more than 100 µM in the test on OVCAR-5 ovarian and 49.1 µM in the test with LOX IMVI melanoma.
Take `CC(=O)Nc1cc2cc(NS(=O)(=O)c3ccc(Cl)c(Cl)c3)ccc2oc1=O`: the TGI was 46.7 µM in the test on HOP-62 NSCLC; more than 100 µM with SR leukemia; more than 100 µM in the test on NCI/ADR-RES ovarian; 58.6 µM with SK-MEL-5 melanoma; more than 100 µM in the test on TK-10 renal; 40.7 µM with A498 renal. Further, the TGI was more than 100 µM in the test with IGROV1 ovarian, more than 100 µM with NCI-H23 lung, more than 100 µM in the test on OVCAR-5 ovarian and 44.3 µM with LOX IMVI melanoma.
Turning to `CCCc1nc(Cl)c(Cl)c(Cl)n1`, the TGI with HOP-62 NSCLC is more than 83.4 µM; in the test with SR leukemia, more than 50.7 µM; in the test on NCI/ADR-RES ovarian, more than 100 µM; with SK-MEL-5 melanoma it was more than 100 µM; in the test with TK-10 renal it was more than 100 µM; with A498 renal it was more than 100 µM. The TGI is 50.4 µM in the test with IGROV1 ovarian, more than 100 µM with NCI-H23 lung, 97.9 µM in the test on OVCAR-5 ovarian and 17.7 µM in the test on LOX IMVI melanoma.
As to `O=C(Nc1cc(Cl)cc(Cl)c1)c1cccc(NC2=C(Cl)C(=O)N(Cc3ccccc3)C2=O)c1`, the GI50 is 37.4 µM in the test with HOP-62 NSCLC; 6.02 µM with SR leukemia; 30.3 µM in the test with NCI/ADR-RES ovarian; 16.6 µM with SK-MEL-5 melanoma; 31.8 µM in the test on TK-10 renal; 22.2 µM in the test on A498 renal. The GI50 in the test with IGROV1 ovarian was 41.1 µM; in the test on NCI-H23 lung it was 27.8 µM; in the test on OVCAR-5 ovarian, more than 100 µM; in the test on LOX IMVI melanoma, 12.1 µM. For the same compound, the TGI in the test with HOP-62 NSCLC was more than 100 µM; with SR leukemia, 80.8 µM; in the test with NCI/ADR-RES ovarian, more than 100 µM; in the test on SK-MEL-5 melanoma, 34.8 µM; with TK-10 renal, more than 100 µM; in the test on A498 renal it was 50.7 µM. In addition, the TGI in the test on IGROV1 ovarian, with NCI-H23 lung, with OVCAR-5 ovarian and in the test on LOX IMVI melanoma was more than 100 µM in each case.
Consider `Cc1c2ccncc2c(C)c2c1sc1ccccc12`, for which the TGI in the test on HOP-62 NSCLC came out at 21.9 µM; with SR leukemia it was 8.98 µM; in the test with NCI/ADR-RES ovarian, 25 µM; in the test with SK-MEL-5 melanoma, 23.1 µM; in the test on TK-10 renal, 48.9 µM; with A498 renal it was 23.1 µM. Besides, the TGI in the test with IGROV1 ovarian worked out at 21.6 µM; in the test on NCI-H23 lung, 25.2 µM; with OVCAR-5 ovarian it was 46.7 µM; with LOX IMVI melanoma, 21.5 µM.

(Values after PubChem BioAssay (NCI).)
